Measurements taken from US20210038515A1 (Azurity Pharmaceuticals, Inc., priority 2014, published 2021).

Tested on: Clostridium difficile
Assay: Agar dilution MIC of vancomycin preparations (Sigma, Cutis), diluent, Na benzoate and Na citrate
Assay type: cell-based
Settings: for MIC, AV (average): average of triplicate; for MIC, VAN-1: replicate 1; for MIC, VAN-2: replicate 2; for MIC, VAN-3: replicate 3
Experimental: Introduction: The purpose of the study was to compare the MICs obtained with the formulation of vancomycin HCL of the invention (Cutis) to formulations obtained using a vancomycin HCL reference standard powder obtained from Sigma. The Example also involves the analysis of a solution or diluent to determine if it has antimicrobial activity at the concentrations present in the agar dilution test.
The C. difficile were tested by agar dilution according to the procedures in the Clinical and Laboratory Standards Institute. 2012. Methods for antimicrobial susceptibility testing of anaerobic bacteria; approved standard-seventh edition.
Other anaerobic organisms included clinical isolates of Bifidobacterium adolescentis and Bacteroides fragilis. Clostridium difficile ATCC 700057 was included as a quality control strain.
The C. difficile isolates were recovered from patients with CDI during the past two years and stored at −70° C. in 20% skim milk. Ribotyping was performed by another reference laboratory. The strains were taken from the freezer and subcultured at least twice to ensure purity and good growth.
On the day of testing, they were suspended in Brucella broth to the turbidity of the 0.5 McFarland standard for testing.
Stock solution of the Sigma vancomycin was prepared in water and stored at −70° C. On the day of testing, it was thawed and further diluted in water to obtain the desired range of 16-0.125 μg/ml. The Cutis vancomycin (25 mg/ml) was reconstituted on the day of testing and further diluted for a final range of 16-0.125 μg/ml in the test. The antimicrobials were added to molten Brucella agar supplemented with vitamin K and hemin to prepare the plates. Drug-free growth controls were included for testing before and after each set of plates. All testing was done in triplicate.
The organisms were pipetted into the wells of the Steers replicator head and applied to the plates with the multi-pronged replicator. The final concentration of organisms was ˜10^5 CFU/spot.
The plates were incubated in the anaerobic chamber incubator for 44 h and examined for growth.
The Cutis diluent comprises: water, about 0.12% (w/v) citric acid (anhydrous), 0.2% (w/v) sucralose, about 0.05% (w/v) artificial grape flavor, 0.1% (w/v) sodium benzoate, about 0.0002% (w/v) D&C Yellow No. 10 and about 0.000038% (w/v) FD&C Red No. 40.

[1] = ATCC 700057 quality control strain, first set (r41)
[2] = ATCC 700057 quality control strain, second set (r74)

CN[C@H](CC(C)C)C(=O)N[C@H]1C(=O)N[C@@H](CC(N)=O)C(=O)N[C@H]2C(=O)N[C@H]3C(=O)N[C@H](C(=O)N[C@H](C(=O)O)c4cc(O)cc(O)c4-c4cc3ccc4O)[C@H](O)c3ccc(c(Cl)c3)Oc3cc2cc(c3O[C@@H]2O[C@H](CO)[C@@H](O)[C@H](O)[C@H]2O[C@H]2C[C@](C)(N)[C@H](O)[C@H](C)O2)Oc2ccc(cc2Cl)[C@H]1O.Cl [Sigma]
1.7 µg/mL: MIC, AV (average) (RMA 24510, ribotype 027) | MIC, AV (average) (RMA 24519, ribotype 027) | MIC, AV (average) (RMA 24541, ribotype 020) | MIC, AV (average) (RMA 24560, ribotype 078)
1 µg/mL: MIC, VAN-3 (RMA 24510, ribotype 027) | MIC, VAN-3 (RMA 24519, ribotype 027) | MIC, VAN-1 (RMA 24541, ribotype 020) | MIC, VAN-1 (RMA 24543, ribotype 020) | MIC, VAN-2 (RMA 24543, ribotype 020) | MIC, AV (average) (RMA 24547, ribotype 014) | MIC, VAN-1 (RMA 24547, ribotype 014) | MIC, VAN-2 (RMA 24547, ribotype 014) | MIC, VAN-3 (RMA 24547, ribotype 014) | MIC, VAN-3 (RMA 24560, ribotype 078)
4 µg/mL: MIC, VAN-2 (RMA 24575, ribotype 078) | MIC, VAN-1 (RMA 24594, ribotype 106) | MIC, VAN-3 (RMA 24594, ribotype 106) | MIC, AV (average) (RMA 24678, ribotype 012) | MIC, VAN-1 (RMA 24678, ribotype 012) | MIC, VAN-2 (RMA 24678, ribotype 012) | MIC, VAN-3 (RMA 24678, ribotype 012)
1.3 µg/mL: MIC, AV (average) (RMA 24543, ribotype 020)
2 µg/mL: MIC, AV (average) [1] | MIC, VAN-1 [1] | MIC, VAN-2 [1] | MIC, VAN-3 [1] | MIC, AV (average) [2] | MIC, VAN-1 [2] | MIC, VAN-2 [2] | MIC, VAN-3 [2] | MIC, AV (average) (RMA 24504, ribotype 027) | MIC, VAN-1 (RMA 24504, ribotype 027) | MIC, VAN-2 (RMA 24504, ribotype 027) | MIC, VAN-3 (RMA 24504, ribotype 027) | MIC, VAN-1 (RMA 24510, ribotype 027) | MIC, VAN-2 (RMA 24510, ribotype 027) | MIC, VAN-1 (RMA 24519, ribotype 027) | MIC, VAN-2 (RMA 24519, ribotype 027) | MIC, AV (average) (RMA 24527, ribotype 014) | MIC, VAN-1 (RMA 24527, ribotype 014) | MIC, VAN-2 (RMA 24527, ribotype 014) | MIC, VAN-3 (RMA 24527, ribotype 014) | MIC, AV (average) (RMA 24529, ribotype 014) | MIC, VAN-1 (RMA 24529, ribotype 014) | MIC, VAN-2 (RMA 24529, ribotype 014) | MIC, VAN-3 (RMA 24529, ribotype 014) | MIC, VAN-2 (RMA 24541, ribotype 020) | MIC, VAN-3 (RMA 24541, ribotype 020) | MIC, VAN-3 (RMA 24543, ribotype 020) | MIC, VAN-1 (RMA 24560, ribotype 078) | MIC, VAN-2 (RMA 24560, ribotype 078) | MIC, AV (average) (RMA 24561, ribotype 078) | MIC, VAN-1 (RMA 24561, ribotype 078) | MIC, VAN-2 (RMA 24561, ribotype 078) | MIC, VAN-3 (RMA 24561, ribotype 078) | MIC, AV (average) (RMA 24567, ribotype 020) | MIC, VAN-1 (RMA 24567, ribotype 020) | MIC, VAN-2 (RMA 24567, ribotype 020) | MIC, VAN-3 (RMA 24567, ribotype 020) | MIC, VAN-1 (RMA 24575, ribotype 078) | MIC, VAN-3 (RMA 24575, ribotype 078) | MIC, VAN-2 (RMA 24594, ribotype 106) | MIC, AV (average) (RMA 24601, ribotype 106) | MIC, VAN-1 (RMA 24601, ribotype 106) | MIC, VAN-2 (RMA 24601, ribotype 106) | MIC, VAN-3 (RMA 24601, ribotype 106) | MIC, AV (average) (RMA 24605, ribotype 002) | MIC, VAN-1 (RMA 24605, ribotype 002) | MIC, VAN-2 (RMA 24605, ribotype 002) | MIC, VAN-3 (RMA 24605, ribotype 002) | MIC, AV (average) (RMA 24607, ribotype 106) | MIC, VAN-1 (RMA 24607, ribotype 106) | MIC, VAN-2 (RMA 24607, ribotype 106) | MIC, VAN-3 (RMA 24607, ribotype 106) | MIC, AV (average) (RMA 24608, ribotype 002) | MIC, VAN-1 (RMA 24608, ribotype 002) | MIC, VAN-2 (RMA 24608, ribotype 002) | MIC, VAN-3 (RMA 24608, ribotype 002) | MIC, AV (average) (RMA 24615, ribotype 005) | MIC, VAN-1 (RMA 24615, ribotype 005) | MIC, VAN-2 (RMA 24615, ribotype 005) | MIC, VAN-3 (RMA 24615, ribotype 005) | MIC, AV (average) (RMA 24628, ribotype 012) | MIC, VAN-1 (RMA 24628, ribotype 012) | MIC, VAN-2 (RMA 24628, ribotype 012) | MIC, VAN-3 (RMA 24628, ribotype 012) | MIC, AV (average) (RMA 24641, ribotype 001/072) | MIC, VAN-1 (RMA 24641, ribotype 001/072) | MIC, VAN-2 (RMA 24641, ribotype 001/072) | MIC, VAN-3 (RMA 24641, ribotype 001/072) | MIC, AV (average) (RMA 24643, ribotype 001/072) | MIC, VAN-1 (RMA 24643, ribotype 001/072) | MIC, VAN-2 (RMA 24643, ribotype 001/072) | MIC, VAN-3 (RMA 24643, ribotype 001/072) | MIC, AV (average) (RMA 24646, ribotype 001/072) | MIC, VAN-1 (RMA 24646, ribotype 001/072) | MIC, VAN-2 (RMA 24646, ribotype 001/072) | MIC, VAN-3 (RMA 24646, ribotype 001/072) | MIC, AV (average) (RMA 24655, ribotype 005) | MIC, VAN-1 (RMA 24655, ribotype 005) | MIC, VAN-2 (RMA 24655, ribotype 005) | MIC, VAN-3 (RMA 24655, ribotype 005) | MIC, AV (average) (RMA 24683, ribotype 027) | MIC, VAN-1 (RMA 24683, ribotype 027) | MIC, VAN-2 (RMA 24683, ribotype 027) | MIC, VAN-3 (RMA 24683, ribotype 027)
2.7 µg/mL: MIC, AV (average) (RMA 24575, ribotype 078)
3.3 µg/mL: MIC, AV (average) (RMA 24594, ribotype 106)
